Assay results from PubChem BioAssay (NCI).
Values joined by “and” are separate entries in the source; they are usually repeats but may differ in a detail not shown here. Equal values may be shown once.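 Dose response: 5 concentrations. Exposure: 48 h. Format: 96-well plates. Endpoint: linear interpolation; highest concentration if not reached. The concentration for 50% growth inhibition is given as GI50. TGI marks complete inhibition of growth.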

Experiments:
Assay in all cases: growth of human tumour cells (NCI), 48 h
CCRF-CEM leukemia = tested on: CCRF-CEM leukemia
COLO 205 colon = tested on: COLO 205 colon
DU-145 prostate = tested on: DU-145 prostate
HL-60(TB) leukemia = tested on: HL-60(TB) leukemia
KM12 colon = tested on: KM12 colon
MALME-3M melanoma = tested on: MALME-3M melanoma
NCI-H226 lung = tested on: NCI-H226 lung
SK-MEL-28 melanoma = tested on: SK-MEL-28 melanoma
SK-MEL-5 melanoma = tested on: SK-MEL-5 melanoma
SNB-75 CNS = tested on: SNB-75 CNS

Row | SMILES | GI50 (CCRF-CEM leukemia) | GI50 (COLO 205 colon) | TGI (COLO 205 colon) | GI50 (DU-145 prostate) | TGI (DU-145 prostate) | TGI (HL-60(TB) leukemia) | GI50 (KM12 colon) | TGI (KM12 colon) | TGI (MALME-3M melanoma) | TGI (NCI-H226 lung) | TGI (SK-MEL-28 melanoma) | GI50 (SK-MEL-5 melanoma) | TGI (SK-MEL-5 melanoma) | GI50 (SNB-75 CNS) | TGI (SNB-75 CNS) | TGI (CCRF-CEM leukemia) | GI50 (HL-60(TB) leukemia) | GI50 (MALME-3M melanoma) | GI50 (NCI-H226 lung) | GI50 (SK-MEL-28 melanoma)
1 | CCCC(=O)Nc1cn(COC)c(C(=O)N2C[C@@H]3C[C@]34C2=CC(=O)c2[nH]cc(C)c24)n1 | 1.96 µM | 6.31 µM | 16.6 µM and 23.7 µM | 3.99 µM | 12.7 µM and > 100 µM | 4.9 µM | 10.5 µM | > 5 µM and 24.5 µM | 6.66 µM | 34.1 µM | 50 µM and 32.2 µM | 3.28 µM | 12.8 µM and 11.8 µM | 14.3 µM | 23.1 µM and 28.6 µM | – | – | – | – | –
2 | CCC[CH2][Sn]([CH2]CCC)([O]C(=O)c1ccc(OC)c(OC)c1OC)[O][Sn]([CH2]CCC)([CH2]CCC)[O]C(=O)c1ccc(OC)c(OC)c1OC | 0.0133 µM | 0.27 µM | 0.917 µM | 1.01 µM | 2.17 µM | 0.554 µM | 0.859 µM | 2.31 µM | 0.757 µM | 0.89 µM | 0.723 µM | 0.604 µM | 1.81 µM | 0.177 µM | 0.744 µM | 0.161 µM | 0.112 µM | 0.168 µM | 0.33 µM | 0.25 µM
3 | COc1cc(N=Nc2ccc(O)c3ncccc23)c2ncccc2c1 | 0.459 µM | 5.65 µM | > 100 µM | 4.06 µM | > 100 µM | 9.16 µM | 4.21 µM | > 100 µM | 33.7 µM | > 100 µM | > 100 µM | 2.09 µM | 13.3 µM | 4.53 µM | > 100 µM | > 100 µM | 2.47 µM | 4.03 µM | 6.07 µM | 4.06 µM
4 | O=C(Nc1ccc(Br)cc1F)c1cc(Cl)ccc1O | 2.08 µM | 2.74 µM | 8.2 µM | 0.899 µM | > 100 µM | 3.19 µM | 2.14 µM | 5.43 µM | 2.67 µM | 4.57 µM | 2.07 µM | 0.273 µM | 0.815 µM | 0.202 µM | 2.4 µM | 7.63 µM | 0.481 µM | 0.434 µM | 1.2 µM | 0.399 µM
5 | C[C@@H]1C[C@@H]([C@@H](CC2CC(=O)NC(=O)C2)OC(=O)CC(=O)c2ccccc2)C(=O)[C@@H](C)C1 | 0.466 µM | 0.849 µM | > 100 µM | 0.769 µM | > 33.3 µM | > 100 µM | 0.888 µM | 70.6 µM | 13.6 µM | > 100 µM | > 29.6 µM | 0.661 µM | > 100 µM | 0.911 µM | > 55.1 µM | > 85.5 µM | 0.402 µM | 0.496 µM | 0.686 µM | 0.752 µM
6 | COc1ccc2nc3ccccc3c(NCc3ccc(F)cc3)c2c1 | 2.06 µM | 1.11 µM | 2.78 µM | 2.09 µM | 7.04 µM | 2.8 µM | 2.42 µM | 8.88 µM | 5.38 µM | 9.28 µM | 9.27 µM | 2 µM | 7.2 µM | 2.46 µM | 9.2 µM | 23.4 µM | 1.17 µM | 1.46 µM | 1.81 µM | 2.9 µM
7 | Cc1cc(N[C@@H]2CCC[C@H](Nc3ccnc4cc(Cl)ccc34)C2)nc(N2CCCCCC2)n1 | 1.59 µM | 1.36 µM | 2.89 µM | 2.99 µM | 10.6 µM | 3.47 µM | 2.06 µM | 4.48 µM | 3.42 µM | 6.06 µM | 3.62 µM | 1.86 µM | 3.27 µM | 1.43 µM | 3.14 µM | 10.7 µM | 1.7 µM | 1.83 µM | 2.42 µM | 1.85 µM
8 | O=C(Cc1ccc(F)c(Cl)c1)Nc1cc(C2(C(F)(F)F)CC2)nn1CC1CCCCC1 | 4.72 µM | 2.59 µM | 5.41 µM | 5.39 µM | > 15 µM | 7.79 µM | 3.74 µM | 12.3 µM | 8.06 µM | > 15 µM | > 15 µM | 2.61 µM | 4.88 µM | 0.808 µM | 5.99 µM | > 15 µM | 3.27 µM | 2.7 µM | 4.32 µM | 4.82 µM
9 | COc1ccc(-c2ccc(=O)oc2C#Cc2cc(OC)c(OC)c(OC)c2)cc1O | 0.331 µM | 4.05 µM | > 40.4 µM | 0.248 µM | 1.54 µM | > 100 µM | 0.759 µM | > 100 µM | > 92.6 µM | > 100 µM | > 100 µM | 0.183 µM | 1.16 µM | 0.167 µM | 2.92 µM | > 100 µM | 0.316 µM | 2.66 µM | 1.42 µM | 3.25 µM
10 | CC(NCCC(c1ccccc1)c1ccccc1)c1ccccc1 (stereo not given) | 2.38 µM | 1.53 µM | 2.85 µM | 3.09 µM | 9.76 µM | 4.19 µM | 2.06 µM | 4.85 µM | 3.44 µM | 13.8 µM | 3.26 µM | 1.6 µM | 2.95 µM | 2.79 µM | 10.9 µM | 8.73 µM | 2.13 µM | 1.75 µM | 2.78 µM | 1.76 µM
11 | Cc1c(N(C)C)ccc2c(=O)c3cccc(CC(=O)O)c3oc12 | – | – | > 100 µM | – | > 100 µM | > 100 µM | – | > 100 µM | > 100 µM | > 100 µM | > 100 µM | – | > 100 µM | – | > 100 µM | > 100 µM | – | – | – | –
12 | O=C(c1ccco1)c1c(C(F)(F)F)nc2ccc(Cl)cc2[n+]1[O-] | > 100 µM | 70.4 µM | > 100 µM | > 100 µM | > 100 µM | 85.1 µM | > 100 µM | > 100 µM | > 100 µM | > 100 µM | > 100 µM | 17.5 µM | 31.6 µM | 54 µM | > 100 µM | > 100 µM | 25.2 µM | > 100 µM | > 100 µM | > 100 µM
13 | Cc1nc(N)sc1N=Nc1ccccc1Br | – | – | > 93 µM | – | 58.5 µM | > 75.9 µM | – | 51.1 µM | 61 µM | 68.2 µM | > 88.1 µM | – | 48.6 µM | – | 37.5 µM | > 100 µM | – | – | – | –
